According to patent publication US20110054017A1, “SUBSTITUTED FURANS AND THEIR USE” (priority 2008, published 2011):

Target: T1, Prostacyclin Receptors (IP Receptors) of Human Thrombocyte Membranes (Homo sapiens, UniProt P43119)
T1 construct: Thrombocyte membranes are obtained by centrifuging 50 ml human blood; tissue Maco Pharma, Langen; host or cells: human thrombocyte (platelet) membranes prepared from buffy coats
Experiment: Binding to prostacyclin receptors (IP receptors) of human thrombocyte membranes, 3H-Iloprost displacement
Conditions: 3 nM 3H-Iloprost, 60 min, room temperature
Protocol: B-1. Studies of Binding to Prostacyclin Receptors (IP Receptors) of Human Thrombocyte Membranes
Thrombocyte membranes are obtained by centrifuging 50 ml human blood (Buffy coats with CDP Stabilizer, from Maco Pharma, Langen) for 20 min at 160×g. Remove the supernatant (platelet-rich plasma, PRP) and then centrifuge again at 2000×g for 10 min at room temperature. Resuspend the sediment in 50 mM tris(hydroxymethyl)aminomethane, which has been adjusted to a pH of 7.4 with 1 N hydrochloric acid, and store at −20° C. overnight. On the next day, centrifuge the suspension at 80 000×g and 4° C. for 30 min. Discard the supernatant. Resuspend the sediment in 50 mM tris(hydroxymethyl)aminomethane/hydrochloric acid, 0.25 mM ethylene diamine tetraacetic acid (EDTA), pH 7.4, and then centrifuge once again at 80 000×g and 4° C. for 30 min. Take up the membrane sediment in binding buffer (50 mM tris(hydroxymethyl)-aminomethane/hydrochloric acid, 5 mM magnesium chloride, pH 7.4) and store at −70° C. until the binding test.
For the binding test, incubate 3 nM ^3H-Iloprost (592 GBq/mmol, from AmershamBioscience) for 60 min with 300-1000 μg/ml human thrombocyte membranes per charge (max. 0.2 ml) in the presence of the test substances at room temperature. After stopping, add cold binding buffer to the membranes and wash with 0.1% bovine serum albumin. After adding Ultima Gold Scintillator, quantify the radioactivity bound to the membranes using a scintillation counter. The nonspecific binding is defined as radioactivity in the presence of 1 μM Iloprost (from Cayman Chemical, Ann Arbor) and is as a rule <25% of the bound total radioactivity. The binding data (IC50 values) are determined using the program GraphPad Prism Version 3.02.

T1 sequence (P43119 whole entry): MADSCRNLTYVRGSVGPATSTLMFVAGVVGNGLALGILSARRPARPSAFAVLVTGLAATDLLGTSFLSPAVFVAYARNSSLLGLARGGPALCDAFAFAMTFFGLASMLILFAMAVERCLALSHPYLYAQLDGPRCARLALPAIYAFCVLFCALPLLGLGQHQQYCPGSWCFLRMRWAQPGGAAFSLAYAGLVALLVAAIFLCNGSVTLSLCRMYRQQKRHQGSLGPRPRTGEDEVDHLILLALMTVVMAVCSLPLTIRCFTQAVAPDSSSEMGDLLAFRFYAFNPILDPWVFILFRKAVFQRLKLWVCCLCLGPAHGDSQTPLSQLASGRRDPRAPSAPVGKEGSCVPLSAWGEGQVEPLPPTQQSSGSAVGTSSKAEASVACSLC

| IC50 [nM] | Compound |
| --- | --- |
| 438 | COc1ccc(-c2c(-c3ccccc3)oc(C)c2C(=O)Nc2cccc(OCC(=O)O)c2)cc1 [Example 20] |
| 670 | COc1ccc(-c2c(-c3ccccc3)oc(C)c2C(=O)N[C@H](C)CCCCC(=O)O)cc1 [Example 26] |
| 315 | COc1ccc(-c2c(-c3ccccc3)oc(C)c2C(=O)O[C@H](C)CCCCC(=O)O)cc1 [Example 21] |
| 476 | COc1ccc(-c2c(-c3ccccc3)oc(C)c2C(=O)NC(C)CCCCC(=O)O)cc1 (stereo not drawn) [Example 24] |
| 470 | COC(=O)CCCCCNC(=O)c1c(C)oc(-c2ccccc2)c1-c1ccc(OC)cc1 [Example 4, Methyl 6-({[4-(4-methoxyphenyl)-2-methyl-5-phenylfuran-3-yl]carbonyl}amino)hexanoater] |
| 138 | CCc1ccc(-c2c(-c3ccccc3)oc(C)c2C(=O)NCCCCCC(=O)O)cc1 [Example 18] |
